Reference: US4678780A, “Anti-spasmodic agents having a ring in the main chain” (United Pharmaceuticals, Inc., priority 1986, dated 1987)
Where a name gives a salt, the structure may show the parent alone.

Tests used:
[1] = system: muscarinic receptors; assay type: binding, rabbit (New Zealand White); details: at a concentration of 1.0 × 10^-5 M; 0.1 nM [3H]QNB; 37° C., 60 min; pH 7.4
[2] = system: gastrointestinal tract, biliary tract, ureter and uterus; details: in vivo; cited from earlier work
[3] = in vivo; cited from earlier work

Structure (SMILES) | % inhibition of ^3 H[QNB] binding [1] [%] | decrease spasm [2] | atropinic side effects [3]
CCN(CC)CCSC(=O)c1ccc(C(C)(C)C)cc1 [4-t-butyl-benzoyl-thio-S-(2-diethylaminoethyl)-ester.HCl] | 21 |  | 
CCN(CC)CCSC(=O)C(c1ccccc1)c1ccccc1 [Thiphenamil hydrochloride] |  | decrease spasm of the gastrointestinal tract, biliary tract, ureter and uterus | without producing characteristic atropinic side effects on salivary and sweat glands, GI glands, the eye or the cardiovascular system
